Source: ChEMBL document CHEMBL1201862, “PubChem BioAssay data set” (2004)
Active and inactive are the calls of the source.

Experiments:
[1] = biological target: T1, Caspase-6 (Homo sapiens, UniProt P55212); test: human caspase-6 inhibitors, dose response, biochemical, VEID-R110 fluorescence, cherry-pick (AID 720632)
T1 sequence (P55212 whole entry): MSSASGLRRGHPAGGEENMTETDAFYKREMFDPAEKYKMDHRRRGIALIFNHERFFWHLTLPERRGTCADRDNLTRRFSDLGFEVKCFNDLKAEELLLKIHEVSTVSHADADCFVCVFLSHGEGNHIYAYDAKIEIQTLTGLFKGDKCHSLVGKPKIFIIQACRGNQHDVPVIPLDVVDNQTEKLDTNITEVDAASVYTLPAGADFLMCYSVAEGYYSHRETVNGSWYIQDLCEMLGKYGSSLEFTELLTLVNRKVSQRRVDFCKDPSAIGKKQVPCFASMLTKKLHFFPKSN

[2] = biological target: T2, Replicative DNA helicase DnaB (Mycobacterium tuberculosis, UniProt P9WMR3); test: DnaB intein splicing inhibitors, dose response, biochemical, cell-free fluorescence (AID 449749); assay type: functional
T2 sequence (P9WMR3 whole entry): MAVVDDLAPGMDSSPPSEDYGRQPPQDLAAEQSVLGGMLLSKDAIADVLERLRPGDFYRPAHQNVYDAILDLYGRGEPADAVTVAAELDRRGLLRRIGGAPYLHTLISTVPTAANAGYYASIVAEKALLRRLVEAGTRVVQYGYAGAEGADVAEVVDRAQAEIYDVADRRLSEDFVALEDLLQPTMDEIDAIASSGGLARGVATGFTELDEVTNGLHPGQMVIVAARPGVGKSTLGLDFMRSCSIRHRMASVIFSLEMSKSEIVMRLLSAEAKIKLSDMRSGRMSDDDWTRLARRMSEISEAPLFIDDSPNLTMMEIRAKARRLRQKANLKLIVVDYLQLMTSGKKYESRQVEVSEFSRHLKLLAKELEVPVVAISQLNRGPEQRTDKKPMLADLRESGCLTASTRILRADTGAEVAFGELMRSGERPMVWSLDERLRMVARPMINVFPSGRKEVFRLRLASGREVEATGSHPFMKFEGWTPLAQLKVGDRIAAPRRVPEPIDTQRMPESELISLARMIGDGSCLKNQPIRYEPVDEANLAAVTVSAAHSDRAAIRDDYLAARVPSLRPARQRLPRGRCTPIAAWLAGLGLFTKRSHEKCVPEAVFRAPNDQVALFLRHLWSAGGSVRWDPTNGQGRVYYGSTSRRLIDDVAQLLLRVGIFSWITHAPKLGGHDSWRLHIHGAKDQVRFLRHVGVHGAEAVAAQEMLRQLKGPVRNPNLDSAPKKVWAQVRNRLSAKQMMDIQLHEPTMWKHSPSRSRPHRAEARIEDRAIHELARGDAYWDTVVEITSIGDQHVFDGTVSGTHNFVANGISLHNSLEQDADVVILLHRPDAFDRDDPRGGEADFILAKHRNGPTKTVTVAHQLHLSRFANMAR

[3] = biological target: T3, Protein RecA (Mycobacterium tuberculosis, UniProt P9WHJ3); test: Fluorescence Cell-Free Homogeneous Dose Retest to Identify Inhibitors of RecA-Intein Splicing Activity. [Related pubchem assays (depositor defined):AID2097, AID2223, AID489010, AID492950]; assay type: functional
T3 sequence (P9WHJ3 whole entry): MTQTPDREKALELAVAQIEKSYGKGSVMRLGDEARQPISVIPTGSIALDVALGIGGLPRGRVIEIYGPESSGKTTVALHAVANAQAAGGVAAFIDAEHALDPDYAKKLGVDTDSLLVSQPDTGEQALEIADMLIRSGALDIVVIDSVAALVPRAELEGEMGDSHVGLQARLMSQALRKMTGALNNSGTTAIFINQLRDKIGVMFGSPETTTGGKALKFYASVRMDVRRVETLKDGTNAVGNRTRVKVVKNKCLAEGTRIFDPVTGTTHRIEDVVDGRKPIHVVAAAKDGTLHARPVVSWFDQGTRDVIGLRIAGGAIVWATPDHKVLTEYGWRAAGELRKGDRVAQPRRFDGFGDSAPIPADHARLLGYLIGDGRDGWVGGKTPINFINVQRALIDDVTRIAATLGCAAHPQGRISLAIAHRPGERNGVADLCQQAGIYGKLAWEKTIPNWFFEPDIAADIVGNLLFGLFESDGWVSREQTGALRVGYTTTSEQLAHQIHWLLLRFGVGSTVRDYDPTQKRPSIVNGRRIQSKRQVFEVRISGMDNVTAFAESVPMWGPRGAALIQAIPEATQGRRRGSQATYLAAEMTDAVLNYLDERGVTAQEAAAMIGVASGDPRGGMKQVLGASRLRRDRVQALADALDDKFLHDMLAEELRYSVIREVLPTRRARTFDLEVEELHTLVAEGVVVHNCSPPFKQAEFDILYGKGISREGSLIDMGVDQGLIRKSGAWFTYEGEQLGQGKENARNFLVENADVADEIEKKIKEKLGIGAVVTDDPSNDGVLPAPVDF

[4] = biological target: T4, Corticotropin-releasing factor receptor 2/Corticotropin-releasing factor-binding protein (Homo sapiens, UniProt P24387+Q13324); test: activators of CRF receptor 2 with binding protein – uHTS hits, confirmation (AID 602473); assay type: functional; settings: read-out: EC50_Mean
T4 sequence (Q13324 whole entry): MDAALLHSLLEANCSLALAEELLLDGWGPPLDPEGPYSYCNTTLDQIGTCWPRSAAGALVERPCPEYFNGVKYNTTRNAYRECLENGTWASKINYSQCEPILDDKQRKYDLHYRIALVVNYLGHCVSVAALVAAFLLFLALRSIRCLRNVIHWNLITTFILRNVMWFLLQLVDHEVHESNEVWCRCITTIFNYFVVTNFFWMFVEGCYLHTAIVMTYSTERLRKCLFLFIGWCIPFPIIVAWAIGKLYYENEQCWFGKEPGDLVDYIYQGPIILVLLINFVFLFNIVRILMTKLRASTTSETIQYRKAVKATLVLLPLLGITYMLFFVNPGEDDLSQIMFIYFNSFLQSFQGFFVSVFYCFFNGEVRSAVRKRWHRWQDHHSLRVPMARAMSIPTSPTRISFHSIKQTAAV
T4 sequence (P24387 whole entry): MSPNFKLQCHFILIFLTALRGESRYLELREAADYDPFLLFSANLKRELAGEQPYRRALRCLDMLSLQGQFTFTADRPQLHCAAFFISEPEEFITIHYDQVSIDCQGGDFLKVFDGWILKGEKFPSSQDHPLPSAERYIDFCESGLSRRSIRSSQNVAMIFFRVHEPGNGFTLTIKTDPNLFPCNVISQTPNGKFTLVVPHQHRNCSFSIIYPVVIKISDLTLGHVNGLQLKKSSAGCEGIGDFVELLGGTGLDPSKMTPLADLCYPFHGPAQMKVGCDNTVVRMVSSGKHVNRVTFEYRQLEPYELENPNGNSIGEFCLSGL

[5] = cytotoxicity in KRAS-transformed pancreatic duct cells, primary screen, cell-based, fluorescence, HTS (AID 431); assay type: functional; settings: Homo sapiens;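 also: cell line used: HPDE-C7K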
[6] = biological target: Cytochrome P450 2C19 (Homo sapiens, UniProt P33261); test: Cytochrome panel assay with activity outcomes. Panel member name: p450-cyp2c19 Compounds with AC50 equal or less than 10 uM are considered active; assay type: functional; settings: read-out: AC50
[7] = cytotoxicity in HPDE-C7 cells, cell-based, fluorescence, HTS (AID 430); assay type: functional; settings: Homo sapiens
[8] = biological target: T5, Tyrosine-protein phosphatase non-receptor type 7 (Homo sapiens, UniProt P35236); test: inhibitors of human HePTP phosphatase, […], biochemical, absorbance, leukemia target (AID 521); assay type: functional
T5 sequence (P35236 whole entry): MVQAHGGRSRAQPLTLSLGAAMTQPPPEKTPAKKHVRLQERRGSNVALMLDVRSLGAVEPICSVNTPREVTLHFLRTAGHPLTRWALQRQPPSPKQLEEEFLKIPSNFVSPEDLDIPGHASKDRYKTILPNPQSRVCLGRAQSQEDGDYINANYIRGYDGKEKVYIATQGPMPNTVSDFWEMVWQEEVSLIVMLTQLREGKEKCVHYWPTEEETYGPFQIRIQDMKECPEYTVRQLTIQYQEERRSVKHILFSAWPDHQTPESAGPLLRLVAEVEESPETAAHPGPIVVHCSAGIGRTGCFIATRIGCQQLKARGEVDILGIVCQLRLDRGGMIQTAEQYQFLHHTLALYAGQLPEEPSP

[9] = M. tuberculosis H37Rv growth inhibitors, H37Rv strain (AID 1626); assay type: functional
[10] = biological target: T6, Carboxy-terminal domain RNA polymerase II polypeptide A small phosphatase 1 (Homo sapiens, UniProt Q9GZU7); test: inhibitors of CTDSP1, concentration-response testing, biochemical assay, absorbance-based, actives from ultra-high-throughput screening (AID 540297); assay type: functional
T6 sequence (Q9GZU7 whole entry): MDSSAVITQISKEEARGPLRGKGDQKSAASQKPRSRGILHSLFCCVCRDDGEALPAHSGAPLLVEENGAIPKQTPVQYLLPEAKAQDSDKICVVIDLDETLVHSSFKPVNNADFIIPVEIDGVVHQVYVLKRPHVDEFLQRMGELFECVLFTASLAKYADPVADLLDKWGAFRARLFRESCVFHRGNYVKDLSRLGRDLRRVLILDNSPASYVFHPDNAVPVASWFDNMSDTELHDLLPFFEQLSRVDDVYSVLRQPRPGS

[11] = enhancers of respiration in Yfh1-depleted yeast, dose response, Friedreich's ataxia, plus single-dose screen (AID 1465); assay type: functional;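 also: yeast depleted of Yfh1p frataxin homolog grown on glycerol needing respiration; WST-1 tetrazolium dye reduction as measure of cellular dehydrogenase metabolic activity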
[12] = NIH:OVCAR-3 ovarian cancer cell cytotoxicity, dose response, PAX8 inhibitor project, plate reader, dry powder samples (AID 743044); assay type: functional, cell-based
[13] = P. falciparum Dd2 growth inhibitors, dose response, SYBR Green, cherry-picked samples (AID 1159567); assay type: functional, cell-based
[14] = HepG2 cell cytotoxicity, dose response, cytotoxicity control, cherry-picked samples (AID 1159577); assay type: functional, cell-based
[15] = biological target: Paired box protein Pax-8 (Homo sapiens, UniProt Q06710); test: inhibitors of PAX8-driven TPO luciferase reporter, dose response, RMG-I cells, cherry-pick (AID 687027); assay type: functional, cell-based;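 also: luciferase reporter driven by Pax8 target thyroperoxidase promoter measured by SteadyGlo luminescence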
Chain of Paired box protein Pax-8 (Q06710 whole entry): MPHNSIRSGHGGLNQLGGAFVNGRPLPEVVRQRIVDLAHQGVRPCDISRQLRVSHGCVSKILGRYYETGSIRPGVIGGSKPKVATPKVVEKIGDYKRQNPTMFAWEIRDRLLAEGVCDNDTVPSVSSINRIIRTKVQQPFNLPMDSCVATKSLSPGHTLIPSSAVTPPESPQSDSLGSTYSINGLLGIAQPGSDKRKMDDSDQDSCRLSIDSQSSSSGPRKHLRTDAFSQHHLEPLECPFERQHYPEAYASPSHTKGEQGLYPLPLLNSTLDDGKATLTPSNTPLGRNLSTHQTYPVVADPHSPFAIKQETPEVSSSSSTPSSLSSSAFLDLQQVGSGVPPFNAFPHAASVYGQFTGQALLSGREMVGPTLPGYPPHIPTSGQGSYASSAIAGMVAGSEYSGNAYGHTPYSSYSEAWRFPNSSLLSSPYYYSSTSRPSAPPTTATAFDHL

Chain of Cytochrome P450 2C19 (P33261 whole entry): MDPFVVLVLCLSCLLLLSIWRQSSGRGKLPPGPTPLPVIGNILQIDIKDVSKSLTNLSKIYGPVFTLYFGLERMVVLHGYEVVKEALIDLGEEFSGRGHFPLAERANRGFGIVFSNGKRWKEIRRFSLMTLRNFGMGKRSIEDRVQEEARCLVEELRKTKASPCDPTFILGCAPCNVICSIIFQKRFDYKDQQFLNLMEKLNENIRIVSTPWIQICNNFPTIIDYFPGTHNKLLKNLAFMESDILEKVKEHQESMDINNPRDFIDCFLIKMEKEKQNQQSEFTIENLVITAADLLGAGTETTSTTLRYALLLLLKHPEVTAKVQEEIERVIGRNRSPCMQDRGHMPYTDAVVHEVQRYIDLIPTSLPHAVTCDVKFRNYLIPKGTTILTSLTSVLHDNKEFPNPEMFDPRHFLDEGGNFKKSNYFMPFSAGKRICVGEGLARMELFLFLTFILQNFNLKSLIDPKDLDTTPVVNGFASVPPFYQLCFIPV

O=C([C-](C1=[N+](Cc2ccc(Cl)nc2)CCN1Cc1ccc(Cl)nc1)[N+](=O)[O-])C(Cl)Cl
AC50 [1]: 8.77 µM (active)
AC50 [2]: 2.03 µM (active)
EC50 [3]: 3.48 µM (active)
EC50 [4]: > 53 µM (inactive)

CC(=O)NC1(c2cccc(F)c2)CCN(CC(=O)NC2CCCCC2)CC1
EC50 [5]: > 20 µM (not active)
AC50 [6]: 3.55 µM (inconclusive)
EC50 [7]: > 20 µM (not active)

O=C(OCN1C(=O)c2ccccc2C1=O)c1cccs1
IC50 [8]: > 100 µM (not active)

O=C(COC(=O)C1COc2ccccc2O1)NC(=O)Nc1ccc2c(c1)OCCO2 (stereo not drawn)
IC50 [9]: > 100 µM (active)

NS(=O)(=O)c1cccc(NC(=O)c2ccc3[nH]cnc3c2)c1
AC50 [1]: 17.3 µM (active)
IC50 [10]: 7.41 µM (active)

CN(C)c1ccc(/C=C(/C(=O)c2ccc(Cl)cc2Cl)n2cncn2)cc1
EC50 [11]: > 100 µM (active)

COc1cc(NC(=O)C2CCCCN2)ccc1OCC(C)C (stereo not drawn)
EC50 [5]: > 20 µM (not active)
EC50 [7]: > 20 µM (not active)

O=C(NC1=NCCS1)c1ccc2c(c1)C(=O)N(Cc1ccco1)C2=O
IC50 [8]: > 100 µM (not active)

O=C(NC1CCCCCC1)c1c(F)c(F)c(F)c(F)c1F
IC50 [8]: > 100 µM (not active)

Nc1ccc(C(=O)Nc2ccc3c(O)cc(S(=O)(=O)O)cc3c2)cc1
AC50 [1]: 8.79 µM (active)
IC50 [10]: 4.61 µM (active)

O=C(Nc1ccccc1)N1C[C@@H]2N[C@H](C1)[C@@H]2c1ccc(/C=C/c2ccccc2)cc1
AC50 [12]: 33.5 µM (active)
AC50 [13]: 1.85 µM (active)
AC50 [14]: 7.17 µM (active)
AC50 [15]: 22.6 µM (active)

O=[N+]([O-])c1ccc(-c2ccc(/C=N/O)o2)cc1
IC50 [9]: > 100 µM (active)
